Experimental data as given in patent publication US4935434A, “Antiarthritic isoxazole-4-carboxamides” (Bristol-Myers Company, priority 1988, dated 1990).
Like-named read-outs stand apart in the source and are kept apart here.

How the values were obtained:
[1] = system: carragenin-induced paw edema; test: Carrageenin induced paw edema in the rat (CIP); assay type: in vivo, male Sprague Dawley rats; conditions: single oral dose 50 mg/kg 30 min. prior to carrageenin, determined 4 hrs. after injection, read-out: CIP % inhib. (reduction in paw volume)
Description: B. Carrageenin induced paw edema in the rat.
This test is based on the procedure originally described by Holsapple and Yim (Inflammation, 1984, 8:223). Six male Sprague Dawley rats weighing approx. 300 gm were used in each experimental group. The rats had been starved for 24 hours prior to injection of 0.1 ml of 1% carrageenin into the plantar surface of the left hind paw. Test compounds were dosed orally 30 minutes prior to carrageenin administration. The volumes of the left hind paws were measured by mercury displacement at 2,4, and 6 hours following carrageenin injection. The efficacy of a compound was expressed as the percent inhibition of carrageenin injected paw volume as compared to non-injected paw using the following equation: [formula] The peak of drug effects usually occurred 2-4 hours following carrageenin injection.
^c test compound administered as a single oral dose of 50 mg/kg 30
min. prior to carrageenin injection; % inhibition determined 4 hrs. after
carrageenin injection; I = <25% reduction in paw volume and A =
≥25% reduction in paw volume.

[2] = system: adjuvant-induced polyarthritis; test: Modified developing adjuvant arthritis in rats (adjuvant-induced polyarthritis, AIP); assay type: in vivo, male Lewis rats; conditions: Rattus norvegicus, po; for inhibition in vivo at 50 mg/kg: 50 mg/kg once daily p.o. d. 1-8; for inhibition in vivo at 89 mg/kg: 89 mg/kg (d. 1-5) once daily p.o.; for inhibition in vivo at 76 mg/kg: 76 mg/kg once daily p.o. d. 1-8; for inhibition in vivo at 100 mg/kg: 100 mg/kg once daily p.o. d. 1-8
Description: A. Modified developing adjuvant arthritis in rats.
This test is based on the procedure originally described by Pearson (Proc. Soc. Biol. Med., 1956, pp 91-5). Each experimental group used six male Lewis rats weighing approx. 250 gm. Arthritis was produced by a single intradermal injection of Mycobacterium butyricum (0.6 mg in 0.1 ml mineral oil) into the base of the tail. Test compounds were administered orally, once daily, starting on the day of inoculation (day 1) through day 8. The initial dosage was reduced during this period when side effects were observed. The paw volume (average of two hind paws) was measured by the mercury displacement method at least twice weekly during the course of the experiment (40 to 42 days). The efficacy of a compound was expressed as the percent reduction of hind paw volume of treated vs. untreated rats using the following equation: [formula]
^a once daily, p.o., from d. 1-8 (unless otherwise specified).
^b % inhibition of paw edema: 0 = <25; + = 25-<40; ++ = 40-<60; +++ =

[3] = 528 h, d. 20-22, read-out: AIP % inhib. (% inhibition of paw edema) d. 20-22
[4] = 1008 h, d. 40-42, read-out: AIP % inhib. (% inhibition of paw edema) d. 40-42

| Structure (SMILES) | inhibition in vivo at 50 mg/kg [1] | inhibition in vivo at 50 mg/kg [2, 3] | inhibition in vivo at 50 mg/kg [2, 4] | also measured |
| --- | --- | --- | --- | --- |
| O=C(Nc1cccc(C(F)(F)F)c1)c1cnoc1C1CC1 [Example 5, 5-Cyclopropylisoxazole-4-carboxylic acid 4-(3-trifluoromethyl)anilide] | ≥ 25% | 40 to 60% | 60 to 80% |  |
| O=C(NC1CC1)c1cnoc1C1CC1 [Example 4, 5-Cyclopropylisoxazole-4-(N-cyclopropyl)carboxamide] | < 25% |  |  | inhibition in vivo at 89 mg/kg [2, 3]: 40 to 60%; inhibition in vivo at 89 mg/kg [2, 4]: 60 to 80% |
| CC(C)NC(=O)c1cnoc1C1CC1 [Example 1, 5-Cyclopropylisoxazole-4-(N-isopropyl)carboxamide] | < 25% |  |  | inhibition in vivo at 76 mg/kg [2, 3]: 25 to 40%; inhibition in vivo at 76 mg/kg [2, 4]: 40 to 60% |
| O=C(Nc1ccc(C(F)(F)F)cc1)c1cnoc1C1CC1 [Example 7, 5-Cyclopropylisoxazole-4-carboxylic acid 4-trifluoromethylanilide] | ≥ 25% |  |  |  |
| CC(C)(C)NC(=O)c1cnoc1C1CC1 [Example 2, 5-Cyclopropylisoxazole-4-(N-tert-butyl)carboxamide] | < 25% | 40 to 60% | 40 to 60% |  |
| C#CCNC(=O)c1cnoc1C1CC1 [Example 3, 5-Cyclopropylisoxazole-4-[N-(2-propynyl)]carboxamide] | < 25% | 40 to 60% | 40 to 60% |  |
| COc1ccc(NC(=O)c2cnoc2C2CC2)cc1 [Example 6, 5-Cyclopropylisoxazole-4-carboxylic acid (4-methoxy)anilide] | < 25% |  |  | inhibition in vivo at 100 mg/kg [2, 3]: < 25%; inhibition in vivo at 100 mg/kg [2, 4]: 40 to 60% |
| Cc1oncc1C(=O)NCc1ccc(C(F)(F)F)cc1 [Example 8, 5-Methylisoxazole-4-(N-4-trifluoromethylbenzyl)carboxamide] | < 25% |  |  |  |
